The source of these data is ChEMBL document CHEMBL1201862, “PubChem BioAssay data set” (2004).

The structures appear in SMILES notation. Counter-ions that a name gives are not always drawn.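 Five compound concentrations were applied to cells in 96-well plates for 48 hours; endpoints were derived by simple linear interpolation of the resulting dose-response curve. The concentration for 50% growth inhibition is given as GI50.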 Active and inactive are the calls of the source. Cut-off read from the data, not from the text of the source: active = GI50 up to about 1.1 µM and inactive = higher. A value given as a limit tells only on which side of the number the result lay.

Common to all, as to assay: NCI tumour cell line growth inhibition, 48 h
For assay [1], the system named is DLD-1.
Assay [2] relates to DMS-273.
Assay [3] deals with LXFL 529.
In assay [4] the test system is M19-MEL.
Assay [5] has as its system XF498.
Assay [6] deals with SNB-78.
The test system of assay [7] is HOP-18.
The subject of assay [8] is KM-20L2.
The test system of assay [9] is RXF 631.

Consider `Cc1n(CC(C)C)c2c([n+]1C)C(=O)c1ccccc1C2=O`, for which the GI50 in assay [1] was 0.0813 µM (active); in assay [2], < 0.0484 µM (active); in assay [3], < 0.0375 µM (active); in assay [4], 0.0719 µM (active); in assay [5] it was 0.252 µM (active); in assay [6], 0.403 µM (active). For the same compound, the GI50 is 0.565 µM (active) in assay [7] and 0.0383 µM (active) in assay [8].
Regarding `CC1CCC(=O)NCCCCC(=O)N1` (centres undefined), the GI50 in assay [1], in assay [2], in assay [3], in assay [4], in [6] and in [8] was > 100 µM (inactive) throughout.
For the compound `O=C(c1ccc(F)cc1)c1cccc(C(=O)c2ccc(F)cc2)n1`, the GI50 in assay [1] is > 100 µM (inactive); in assay [2], 26.3 µM (inactive); in [3] it was > 79.1 µM (inactive); in assay [4], > 72.3 µM (inactive); in assay [5] it was 20.9 µM (inactive); in [6], 17.7 µM (inactive). The GI50 in assay [7] was 53.2 µM (inactive); in [8], > 100 µM (inactive).
Turning to `CCOP(=O)(C/C(O)=C1\C(=O)C(CCCCNC(=O)OC(C)(C)C)N(Cc2ccccc2)C1=O)OCC` (centres undefined), the GI50 is > 100 µM (inactive) in [1]; > 100 µM (inactive) in assay [2]; > 100 µM (inactive) in assay [3]; > 100 µM (inactive) in assay [4]; 80.5 µM (inactive) in [7]; > 100 µM (inactive) in assay [8].
In the case of `NC(=O)N/N=C(\Cc1nc2ccc(C(=O)c3ccccc3)cc2nc1O)C(=O)Nc1ccc(Br)cc1`, the GI50 in assay [1], in [2], in [3], in assay [4], in assay [5] and in assay [6] was > 100 µM (inactive) in each case. The GI50 in assay [7] and in assay [8] was > 100 µM (inactive) each time.
Take `O=C1C(Br)=CC2(C=C1Br)CCNC1=C2C2=NCCc3c[nH]c(c32)C1=O`: the GI50 in assay [1] is 0.0182 µM (active); in assay [2], 0.158 µM (active); in assay [4] it was 0.0275 µM (active); in [5] it was 0.188 µM (active); in assay [6] it was 0.2 µM (active); in assay [7], 1.98 µM (inactive). Also, in assay [8], the GI50 is 0.084 µM (active).
As for `CCc1cccc(C)c1NC(=O)CCc1nnc(S)[nH]1`, the GI50 in assay [1], in assay [3], in assay [4], in assay [5], in assay [6] and in assay [7] was > 100 µM (inactive) in each case. The GI50 in assay [8] is > 100 µM (inactive).
As for `COc1cccc(NC(=S)Nn2c(C)nc3ccccc3c2=O)c1`, the GI50 in assay [1] was > 100 µM (inactive); in assay [2] it was > 100 µM (inactive); in [3] it was > 100 µM (inactive); in [4] it was > 100 µM (inactive); in [7], 83.6 µM (inactive).
With `Cc1c(-c2coc(-c3ccccc3)n2)c(=O)n(-c2ccccc2)n1C`, the GI50 was > 100 µM (inactive) in assay [1]; > 100 µM (inactive) in assay [2]; 58.1 µM (inactive) in assay [3]; 56.2 µM (inactive) in [4]; 23 µM (inactive) in [5]; > 100 µM (inactive) in assay [6]. The GI50 in assay [8] was > 100 µM (inactive).
Turning to `CC(=O)CCCCCCCCCCCC[C@@H]1CC[C@H](C)[C@H](O)N1`, the GI50 in assay [1] is > 100 µM (inactive); in assay [2] it was > 100 µM (inactive); in [3] it was > 100 µM (inactive); in [4], 95.5 µM (inactive); in [5], > 100 µM (inactive); in [6] it was > 100 µM (inactive). For the same compound, the GI50 in assay [7] was > 100 µM (inactive); in assay [8] it was 65.2 µM (inactive).
Consider `CCCCNC1=C(C(=O)OCC)/C(=N/NC(=O)c2ccccc2O)CO1`, for which the GI50 in [1] was 18.2 µM (inactive); in [3], 38 µM (inactive); in assay [4] it was > 100 µM (inactive); in [5], > 100 µM (inactive); in assay [6], 6.93 µM (inactive); in [7] it was 62.2 µM (inactive). For the same compound, the GI50 in assay [8] is > 100 µM (inactive).
As to `CCC1(O)CC(c2ccccc2)N(C)C(c2ccccc2)C1` (centres undefined), the GI50 in assay [1], in assay [2], in assay [3], in assay [9], in assay [4] and in [6] was > 100 µM (inactive) throughout. The GI50 in [8] was > 100 µM (inactive).
`O=C(O)c1c[nH]cc1C(=O)O`: the GI50 in assay [1], in assay [2], in assay [3], in assay [4], in assay [5] and in assay [6] was > 100 µM (inactive) each time. Besides, the GI50 in assay [8] was > 100 µM (inactive).
`Cc1ccc(C(=O)N2CCCCC2)cc1/N=N/N(C)C`: the GI50 in assay [1], in [2], in assay [3] and in [4] was > 100 µM (inactive) throughout.
Consider `CC1CC(=O)CC[C@@H]1OCc1ccccc1` (some centres undefined), for which the GI50 in assay [1], in assay [2], in assay [4], in assay [5], in assay [6] and in assay [7] was > 100 µM (inactive) each time. Also, the GI50 in assay [8] is > 100 µM (inactive).
Turning to `Cc1cc2c(=O)n(-c3ccc(F)cc3)c(C)nc2c(C(=O)O)c1C`, the GI50 in assay [1], in assay [2], in assay [3], in [4], in assay [6] and in assay [7] was > 100 µM (inactive) in each case. Besides, in assay [8], the GI50 is > 100 µM (inactive).
For `CC(=O)N(C)c1ccc(Nc2cc(C)nc3ccc4nc[nH]c4c23)cc1` [ACODAZOLE HYDROCHLORIDE], the GI50 in [1] was 19.4 µM (inactive); in assay [2], 9.38 µM (inactive); in assay [4], 8.97 µM (inactive); in assay [5], 2.29 µM (inactive); in assay [6], 14.4 µM (inactive); in assay [7], 12.4 µM (inactive). The GI50 in assay [8] was 11.9 µM (inactive).
`COC(=O)C[C@](O)(CCCC(C)(C)O)C(=O)O[C@@H]1C(OC)=C[C@]23CCCN2CCc2cc4c(cc2[C@H]13)OCO4` [OMACETAXINE MEPESUCCINATE]: the GI50 is 0.0231 µM (active) in assay [1]; 0.00679 µM (active) in assay [2]; 0.0194 µM (active) in assay [4]; 0.00914 µM (active) in assay [5]; 0.0682 µM (active) in [6]; 0.06 µM (active) in [7]. In addition, in assay [8], the GI50 is 0.0192 µM (active).
Take `OC[C@H]1O[C@@H](n2cnc3c(S)ncnc32)[C@H](O)[C@@H]1O` [THIOINOSINE]: the GI50 was 971 µM (inactive) in assay [2]; > 2500 µM (inactive) in assay [4]; > 1260 µM (inactive) in assay [5]; > 2500 µM (inactive) in assay [6]; 2070 µM (inactive) in assay [7]; > 2500 µM (inactive) in [8].
